Assay results taken from patent US6743940B2, “4-aminobut-2-ynecarboxylic acid derivatives” (Ciba Specialty Chemicals Corporation, priority 2000, dated 2004).
Like-named read-outs stand apart in the source and are kept apart here.

Legend:
Assay in all cases: Minimum Inhibitory Concentration (MIC) in the agar incorporation test
Format in all cases: cell-based
[1] = tested on: Aspergillus niger ATCC 6275; conditions: ATCC6275, 72 h, 3 days at 28° C.
Experimental: (§1) Determination of the Minimum Inhibitory Concentration (MIC) in the Agar Incorporation Test (MIC Test) [table] Test Principle 0.3 ml of each dilution step is mixed with 15 ml of still liquid nutrient medium. After the nutrient medium has solidified, 10 μl of each of the following organism dilutions of the test strains in 0.85% NaCl solution is dotted onto the agar medium: [table] The plates are incubated for 24 hours at 37° C. (A. niger 3 days at 28° C.) and then the highest dilution (lowest concentration) of the test substance at which no more growth is observed (corresponds to the MIC) is determined.

[2] = tested on: Candida albicans ATCC 10231; conditions: ATCC10231, Table 1, casein-soybean flour-peptone agar, 24 hours at 37° C., dilution series 1000 ppm to 10 ppm
Experimental: as §1

[3] = tested on: Pseudomonas aeruginosa CIP A-22; conditions: CIPA22, Table 1, casein-soybean flour-peptone agar, 24 hours at 37° C., dilution series 1000 ppm to 10 ppm
Experimental: as §1

[4] = tested on: Staphylococcus aureus ATCC 9144; conditions: 24 hours at 37° C.
Experimental: as §1

[5] = tested on: Escherichia coli NCTC 8196; conditions: NCTC8196, Table 1, casein-soybean flour-peptone agar, 24 hours at 37° C., dilution series 1000 ppm to 10 ppm
Experimental: as §1

[6] = Table 2, MIC test, read-out: Further microbiological test results, Aspergillus niger ATCC 6275
[7] = ATCC9144, Table 2, MIC test, read-out: Further microbiological test results, Staphylococcus aureus ATCC 9144

| Structure (SMILES) | MIC [1, 6] | MIC [4, 7] | also measured |
| --- | --- | --- | --- |
| COC(=O)CC#CCN(C)c1ccccc1 [Compound of formula (101), 4-(N-methyl-phenylamino)-but-2-yne-carboxylic Acid Methyl Ester] |  |  | MIC ([1]; Table 1, Sabouraud 4% glucose-agar, dilution series 1000 ppm to 10 ppm, read-out: Minimum Inhibitory Concentration (MIC), Aspergillus niger ATCC 6275): 62.5 µg/mL; MIC [2]: 62.5 µg/mL; MIC [3]: > 1000 µg/mL; MIC ([4]; ATCC9144, Table 1, casein-soybean flour-peptone agar, dilution series 1000 ppm to 10 ppm, read-out: Minimum Inhibitory Concentration (MIC), Staphylococcus aureus ATCC 9144): 62.5 µg/mL; MIC [5]: 125 µg/mL |
| CCCN(CC#CC(=O)OC)c1cccc(C)c1 [Compound of formula (106)] | 125 µg/mL | 125 µg/mL |  |
| CCCN(CC#CC(=O)OCC)c1cccc(OC)c1 [Compound of formula (109)] |  | 1000 µg/mL |  |
| CCCCN(CC#CC(=O)OC)c1cccc(C)c1 [Compound of formula (113)] |  | 125 µg/mL |  |
| CCN(CC#CC(=O)OC)c1cccc(C)c1 [Compound of formula (115)] | 8 µg/mL |  |  |
| CCOC(=O)C#CCNc1ccccc1 [Compound of formula (116)] | 125 µg/mL | 125 µg/mL |  |
| CCOC(=O)C#CCNc1ccc(OC)cc1 [Compound of formula (117)] | 500 µg/mL | 500 µg/mL |  |
| COC(=O)C#CCNc1ccc(C)cc1 [Compound of formula (118)] | 125 µg/mL | 125 µg/mL |  |

Continued by falling MIC [4, 7], values first:

| MIC [1, 6] | MIC [4, 7] | Structure (SMILES) | also measured |
| --- | --- | --- | --- |
| 63 µg/mL | 63 µg/mL | CCCCN(CC#CC(=O)OC)c1ccccc1 [Compound of formula (107)] |  |
| 125 µg/mL | 63 µg/mL | CCCN(CC#CC(=O)OC)c1cccc(OC)c1 [Compound of formula (108)] |  |
| 125 µg/mL | 63 µg/mL | CCCCCN(CC#CC(=O)OC)c1ccccc1 [Compound of formula (110)] |  |
|  | 63 µg/mL | CCCN(CC#CC(=O)OC)c1ccc(OC)cc1 [Compound of formula (111)] |  |
|  | 63 µg/mL | CCCCCN(CC#CC(=O)OC)c1cccc(OC)c1 [Compound of formula (112)] |  |
| 60 µg/mL | 60 µg/mL | CCN(CC#CC(=O)OC)c1ccc(OC)cc1 [Compound of formula (114)] |  |
